{
  "source": "PubChem BioAssay (NCI)",
  "assay_in_all_cases": "inhibition of tumour cell growth, NCI panel, 48 h",
  "key": {"OVCAR-3 ovarian": {"tested_on": "OVCAR-3 ovarian"}, "IGROV1 ovarian": {"tested_on": "IGROV1 ovarian"}, "EKVX NSCLC": {"tested_on": "EKVX NSCLC"}, "DMS 273 small cell lung": {"tested_on": "DMS 273 small cell lung"}, "SF-268 CNS": {"tested_on": "SF-268 CNS"}, "HCC-2998 colon": {"tested_on": "HCC-2998 colon"}, "RPMI-8226 leukemia": {"tested_on": "RPMI-8226 leukemia"}, "NCI-H23 lung": {"tested_on": "NCI-H23 lung"}, "NCI-H226 lung": {"tested_on": "NCI-H226 lung"}, "SK-MEL-28 melanoma": {"tested_on": "SK-MEL-28 melanoma"}, "HCT-116 colon": {"tested_on": "HCT-116 colon"}, "RXF 393 renal": {"tested_on": "RXF 393 renal"}, "A498 renal": {"tested_on": "A498 renal"}, "SK-MEL-2 melanoma": {"tested_on": "SK-MEL-2 melanoma"}, "DLD-1 colon": {"tested_on": "DLD-1 colon"}, "UO-31 renal": {"tested_on": "UO-31 renal"}, "LOX IMVI melanoma": {"tested_on": "LOX IMVI melanoma"}, "XF 498 CNS": {"tested_on": "XF 498 CNS"}, "SF-295 CNS": {"tested_on": "SF-295 CNS"}, "SNB-19 CNS": {"tested_on": "SNB-19 CNS"}, "CCRF-CEM leukemia": {"tested_on": "CCRF-CEM leukemia"}, "HOP-62 NSCLC": {"tested_on": "HOP-62 NSCLC"}, "DMS 114 small cell lung": {"tested_on": "DMS 114 small cell lung"}, "UACC-257 melanoma": {"tested_on": "UACC-257 melanoma"}, "OVCAR-8 ovarian": {"tested_on": "OVCAR-8 ovarian"}, "M14 melanoma": {"tested_on": "M14 melanoma"}, "TK-10 renal": {"tested_on": "TK-10 renal"}, "NCI-H522 lung": {"tested_on": "NCI-H522 lung"}, "OVCAR-5 ovarian": {"tested_on": "OVCAR-5 ovarian"}, "ACHN renal": {"tested_on": "ACHN renal"}, "KM20L2 colon": {"tested_on": "KM20L2 colon"}, "U251 CNS": {"tested_on": "U251 CNS"}, "A549 NSCLC": {"tested_on": "A549 NSCLC"}, "NCI-H460 lung": {"tested_on": "NCI-H460 lung"}, "OVCAR-4 ovarian": {"tested_on": "OVCAR-4 ovarian"}, "UACC-62 melanoma": {"tested_on": "UACC-62 melanoma"}, "MOLT-4 leukemia": {"tested_on": "MOLT-4 leukemia"}, "SF-539 CNS": {"tested_on": "SF-539 CNS"}, "HT29 colon": {"tested_on": "HT29 colon"}, "HL-60(TB) leukemia": {"tested_on": "HL-60(TB) leukemia"}, "HOP-92 NSCLC": {"tested_on": "HOP-92 NSCLC"}, "CAKI-1 renal": {"tested_on": "CAKI-1 renal"}, "SK-OV-3 ovarian": {"tested_on": "SK-OV-3 ovarian"}, "HOP-18 NSCLC": {"tested_on": "HOP-18 NSCLC"}, "SK-MEL-5 melanoma": {"tested_on": "SK-MEL-5 melanoma"}, "SNB-75 CNS": {"tested_on": "SNB-75 CNS"}, "COLO 205 colon": {"tested_on": "COLO 205 colon"}, "SN12C renal": {"tested_on": "SN12C renal"}, "786-0 renal": {"tested_on": "786-0 renal"}, "SW-620 colon": {"tested_on": "SW-620 colon"}, "M19-MEL melanoma": {"tested_on": "M19-MEL melanoma"}, "KM12 colon": {"tested_on": "KM12 colon"}, "LXFL 529 NSCLC": {"tested_on": "LXFL 529 NSCLC"}, "HCT-15 colon": {"tested_on": "HCT-15 colon"}, "K-562 leukemia": {"tested_on": "K-562 leukemia"}, "MALME-3M melanoma": {"tested_on": "MALME-3M melanoma"}, "SNB-78 CNS": {"tested_on": "SNB-78 CNS"}},
  "note": "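96-well plates; 48 h exposure; 5 concentrations. Endpoints by linear interpolation between flanking doses. Not reached: highest tested concentration assigned. TGI denotes the concentration required for complete inhibition of growth.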",
  "data": [
    {"smiles": "COc1cc([C@@H]2c3cc4c(cc3[C@@H](NCc3ccc(C#N)cc3)C3COC(=O)[C@@H]32)OCO4)cc(OC)c1O", "note": "(some centres not stated)", "values": [
      {"measurement": "TGI", "setting": "OVCAR-3 ovarian", "result": 5.51, "unit": "µM"},
      {"measurement": "TGI", "setting": "IGROV1 ovarian", "result": 7.29, "unit": "µM"},
      {"measurement": "TGI", "setting": "EKVX NSCLC", "result": 5.76, "unit": "µM"},
      {"measurement": "TGI", "setting": "DMS 273 small cell lung", "result": 2.49, "unit": "µM"},
      {"measurement": "TGI", "setting": "SF-268 CNS", "result": 6.6, "unit": "µM"},
      {"measurement": "TGI", "setting": "HCC-2998 colon", "result": 3.69, "unit": "µM"},
      {"measurement": "TGI", "setting": "RPMI-8226 leukemia", "result": 5.07, "unit": "µM"},
      {"measurement": "TGI", "setting": "NCI-H23 lung", "result": 1.43, "unit": "µM"},
      {"measurement": "TGI", "setting": "NCI-H226 lung", "result": 2.26, "unit": "µM"},
      {"measurement": "TGI", "setting": "SK-MEL-28 melanoma", "result": 15.2, "unit": "µM"},
      {"measurement": "TGI", "setting": "HCT-116 colon", "result": 11.8, "unit": "µM"},
      {"measurement": "TGI", "setting": "RXF 393 renal", "result": 21.5, "unit": "µM"},
      {"measurement": "TGI", "setting": "A498 renal", "result": 3.84, "unit": "µM"},
      {"measurement": "TGI", "setting": "SK-MEL-2 melanoma", "result": 6.54, "unit": "µM"},
      {"measurement": "TGI", "setting": "DLD-1 colon", "result": 5.33, "unit": "µM"},
      {"measurement": "TGI", "setting": "UO-31 renal", "result": 4.34, "unit": "µM"},
      {"measurement": "TGI", "setting": "LOX IMVI melanoma", "result": 4.36, "unit": "µM"},
      {"measurement": "TGI", "setting": "XF 498 CNS", "result": 2.85, "unit": "µM"},
      {"measurement": "TGI", "setting": "SF-295 CNS", "result": "> 100", "unit": "µM"},
      {"measurement": "TGI", "setting": "SNB-19 CNS", "result": "> 100", "unit": "µM"},
      {"measurement": "TGI", "setting": "CCRF-CEM leukemia", "result": 7.01, "unit": "µM"},
      {"measurement": "TGI", "setting": "HOP-62 NSCLC", "result": 1.41, "unit": "µM"},
      {"measurement": "TGI", "setting": "DMS 114 small cell lung", "result": 4.98, "unit": "µM"},
      {"measurement": "TGI", "setting": "UACC-257 melanoma", "result": 33.9, "unit": "µM"},
      {"measurement": "TGI", "setting": "OVCAR-8 ovarian", "result": 3.01, "unit": "µM"},
      {"measurement": "TGI", "setting": "M14 melanoma", "result": 6.55, "unit": "µM"},
      {"measurement": "TGI", "setting": "TK-10 renal", "result": 3.76, "unit": "µM"},
      {"measurement": "TGI", "setting": "NCI-H522 lung", "result": 2.83, "unit": "µM"},
      {"measurement": "TGI", "setting": "OVCAR-5 ovarian", "result": 8.71, "unit": "µM"},
      {"measurement": "TGI", "setting": "ACHN renal", "result": 1.55, "unit": "µM"},
      {"measurement": "TGI", "setting": "KM20L2 colon", "result": 3.99, "unit": "µM"},
      {"measurement": "TGI", "setting": "U251 CNS", "result": 1.55, "unit": "µM"},
      {"measurement": "TGI", "setting": "A549 NSCLC", "result": 1.54, "unit": "µM"},
      {"measurement": "TGI", "setting": "NCI-H460 lung", "result": 1.77, "unit": "µM"},
      {"measurement": "TGI", "setting": "OVCAR-4 ovarian", "result": "> 100", "unit": "µM"},
      {"measurement": "TGI", "setting": "UACC-62 melanoma", "result": 2.75, "unit": "µM"},
      {"measurement": "TGI", "setting": "MOLT-4 leukemia", "result": 1.38, "unit": "µM"},
      {"measurement": "TGI", "setting": "SF-539 CNS", "result": 2.36, "unit": "µM"},
      {"measurement": "TGI", "setting": "HT29 colon", "result": 3.15, "unit": "µM"},
      {"measurement": "TGI", "setting": "HL-60(TB) leukemia", "result": 0.771, "unit": "µM"},
      {"measurement": "TGI", "setting": "HOP-92 NSCLC", "result": 49.4, "unit": "µM"},
      {"measurement": "TGI", "setting": "CAKI-1 renal", "result": 8.83, "unit": "µM"},
      {"measurement": "TGI", "setting": "SK-OV-3 ovarian", "result": 3.9, "unit": "µM"},
      {"measurement": "TGI", "setting": "HOP-18 NSCLC", "result": "> 100", "unit": "µM"},
      {"measurement": "TGI", "setting": "SK-MEL-5 melanoma", "result": 8.37, "unit": "µM"},
      {"measurement": "TGI", "setting": "SNB-75 CNS", "result": 3.25, "unit": "µM"},
      {"measurement": "TGI", "setting": "COLO 205 colon", "result": 6.32, "unit": "µM"},
      {"measurement": "TGI", "setting": "SN12C renal", "result": 3.02, "unit": "µM"},
      {"measurement": "TGI", "setting": "786-0 renal", "result": 2.32, "unit": "µM"},
      {"measurement": "TGI", "setting": "SW-620 colon", "result": 3.44, "unit": "µM"},
      {"measurement": "TGI", "setting": "M19-MEL melanoma", "result": 19.5, "unit": "µM"},
      {"measurement": "TGI", "setting": "KM12 colon", "result": 3.78, "unit": "µM"},
      {"measurement": "TGI", "setting": "LXFL 529 NSCLC", "result": 50.2, "unit": "µM"},
      {"measurement": "TGI", "setting": "HCT-15 colon", "result": 3.01, "unit": "µM"},
      {"measurement": "TGI", "setting": "K-562 leukemia", "result": 15.9, "unit": "µM"},
      {"measurement": "TGI", "setting": "MALME-3M melanoma", "result": 4.9, "unit": "µM"},
      {"measurement": "TGI", "setting": "SNB-78 CNS", "result": 53.2, "unit": "µM"}
    ]}
  ]
}
